Assay results published in patent US9695155B2, “Herbicidal substituted pyrimidinyloxy benzene compounds” (E. I. DU PONT DE NEMOURS AND COMPANY, priority 2013, dated 2017).

Tests used:
morningglory [1] = assay: Test A postemergence; format: in vivo, Ipomoea spp.
Method in brief: (§1)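 Visual 0–100 rating (100 = complete control) taken about 10 d post-treatment relative to untreated checks. Preemergence: directed soil spray on sown loam/sand pots. Postemergence: seedlings 2–10 cm, 1–2 leaf. Non-phytotoxic solvent formulation with surfactant.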

corn = assay: Test A preemergence; format: in vivo, Zea mays
Method in brief: as §1

wheat = assay: Test A postemergence; format: in vivo, Triticum aestivum
Method in brief: as §1

large (Lg) crabgrass [2] = assay: Test C preemergence; format: in vivo, Digitaria sanguinalis
Method in brief: (§2)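 Preemergence: seeds sown in a loam soil–sand blend and sprayed with test chemical in a non-phytotoxic solvent mixture containing surfactant. Postemergence: plants at 2 to 18 cm (1- to 4-leaf stage) in peat-based medium, treated with the same formulation. Greenhouse 13 to 15 days, then visual rating 0 (no effect) to 100 (complete control).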

blackgrass = assay: Test C preemergence; format: in vivo, Alopecurus myosuroides
Method in brief: as §2

wheat, winter = assay: Test C preemergence; format: in vivo, Triticum aestivum
Method in brief: as §2

barnyardgrass [3] = assay: Test A preemergence; format: in vivo, Echinochloa crus-galli
Method in brief: as §1

large (Lg) crabgrass [4] = assay: Test A preemergence; format: in vivo, Digitaria sanguinalis
Method in brief: as §1

Heteranthera limosa = assay: Test B flooded paddy test; format: in vivo; conditions: Flood, 250 g ai/ha, 0 to 100 scale where 0 is no effect and 100 is complete control
Method in brief: (§3)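 Plants were grown to the 2-leaf stage, then pots were flooded to 3 cm above the soil and compounds were applied directly into the paddy water. That depth was held throughout, and after 13 to 15 days in the greenhouse injury was rated visually against controls on a 0–100 scale (0 no effect, 100 complete control).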

barnyardgrass [5] = assay: Test B flooded paddy test; format: in vivo, Echinochloa crus-galli; conditions: Flood, 250 g ai/ha, 0 to 100 scale where 0 is no effect and 100 is complete control
Method in brief: as §3

large (Lg) crabgrass [6] = assay: Test A postemergence; format: in vivo, Digitaria sanguinalis
Method in brief: as §1

Italian ryegrass = assay: Test C preemergence; format: in vivo, Lolium multiflorum
Method in brief: as §2

morningglory [7] = assay: Test A preemergence; format: in vivo, Ipomoea spp.
Method in brief: as §1

[8] = 125 g ai/ha, 0 to 100 scale where 0 is no effect and 100 is complete control
[9] = 500 g ai/ha, 0 to 100 scale where 0 is no effect and 100 is complete control
[10] = 500 g ai/ha, 0 to 100 scale, 0 no effect, 100 complete control, approx. 10 days
[11] = 16 g ai/ha, preemergence, scale 0 to 100 (0 no effect, 100 complete control)
[12] = 62 g ai/ha, preemergence, scale 0 (no effect) to 100 (complete control)
[13] = 125 g ai/ha, preemergence, scale 0 (no effect) to 100 (complete control)
[14] = Preemergence, 31 g ai/ha, scale 0 to 100, 0 no effect, 100 complete control

SMILES: FC(F)(F)c1cnn(-c2ccccc2Oc2ncc(Br)cn2)c1 [Compound 18, 5-bromo-2-[2-[4-(trifluoromethyl)-1H-pyrazol-1-yl]phenoxy]pyrimidine]
- pest or weed control at 125 g/ha (morningglory [1]; Ipomoea, post-emergence, 240 h, 125 g ai/ha, 0 to 100 scale where 0 is no effect and 100 is complete control, read-out: Plant response rating, Morningglory): 60%
- pest or weed control at 500 g/ha (morningglory [1]; Ipomoea, post-emergence, 240 h, 500 g ai/ha, 0 to 100 scale, 0 no effect, 100 complete control, read-out: Plant response rating Morningglory): 100%
- Corn plant response rating (crop injury, 0 = no effect, 100 = complete kill) at 125 g/ha (corn; Zea mays, pre-emergence, 240 h, 125 g ai/ha, 0 to 100 scale where 0 is no effect and 100 is complete control): 0%
- plant injury at 500 g/ha (corn; Zea mays, pre-emergence, 240 h, 500 g ai/ha, 0 to 100 scale, 0 no effect, 100 complete control, approx. 10 days, read-out: Corn plant response rating): 10%
- plant injury at 125 g/ha (wheat; Triticum aestivum, post-emergence, 240 h, 125 g ai/ha, 0 to 100 scale where 0 is no effect and 100 is complete control, read-out: Plant response rating, Wheat): 50%
- plant injury at 500 g/ha (wheat; Triticum aestivum, post-emergence, 240 h, 500 g ai/ha, 0 to 100 scale, 0 no effect, 100 complete control, read-out: Plant response rating Wheat): 50%
- pest or weed control at 62 g/ha (large (Lg) crabgrass [2]; Digitaria sanguinalis, pre-emergence, 62 g ai/ha, preemergence, scale 0 (no effect) to 100 (complete control), read-out: Crabgrass, Large plant response rating): 100%
- pest or weed control at 125 g/ha (large (Lg) crabgrass [2]; Digitaria sanguinalis, pre-emergence, 125 g ai/ha, preemergence, scale 0 (no effect) to 100 (complete control), read-out: Crabgrass, Large plant response rating): 100%
- pest or weed control at 250 g/ha (large (Lg) crabgrass [2]; Digitaria sanguinalis, pre-emergence, 250 g ai/ha, preemergence, scale 0 (no effect) to 100 (complete control), read-out: Crabgrass, Large plant response rating): 100%
- pest or weed control at 31 g/ha (large (Lg) crabgrass [2]; Digitaria sanguinalis, pre-emergence, Preemergence, 31 g ai/ha, scale 0 to 100, 0 no effect, 100 complete control, read-out: Plant response rating, Crabgrass, Large): 75%
- pest or weed control at 62 g/ha (blackgrass; Alopecurus myosuroides, pre-emergence, 62 g ai/ha, preemergence, scale 0 (no effect) to 100 (complete control), read-out: Blackgrass plant response rating): 80%
- pest or weed control at 125 g/ha (blackgrass; Alopecurus myosuroides, pre-emergence, 125 g ai/ha, preemergence, scale 0 (no effect) to 100 (complete control), read-out: Blackgrass plant response rating): 90%
- pest or weed control at 250 g/ha (blackgrass; Alopecurus myosuroides, pre-emergence, 250 g ai/ha, preemergence, scale 0 (no effect) to 100 (complete control), read-out: Blackgrass plant response rating): 90%
- pest or weed control at 31 g/ha (blackgrass; Alopecurus myosuroides, pre-emergence, Preemergence, 31 g ai/ha, scale 0 to 100, 0 no effect, 100 complete control, read-out: Plant response rating, Blackgrass): 10%
- plant injury at 62 g/ha (wheat, winter; Triticum aestivum, pre-emergence, 62 g ai/ha, preemergence, scale 0 (no effect) to 100 (complete control), read-out: Wheat plant response rating): 5%
- plant injury at 125 g/ha (wheat, winter; Triticum aestivum, pre-emergence, 125 g ai/ha, preemergence, scale 0 (no effect) to 100 (complete control), read-out: Wheat plant response rating): 35%
- plant injury at 250 g/ha (wheat, winter; Triticum aestivum, pre-emergence, 250 g ai/ha, preemergence, scale 0 (no effect) to 100 (complete control), read-out: Wheat plant response rating): 35%
- plant injury at 31 g/ha (wheat, winter; Triticum aestivum, pre-emergence, Preemergence, 31 g ai/ha, scale 0 to 100, 0 no effect, 100 complete control, read-out: Plant response rating, Wheat): 0%
- pest or weed control at 125 g/ha (barnyardgrass [3]; Echinochloa crus-galli, pre-emergence, 240 h, 125 g ai/ha, 0 to 100 scale where 0 is no effect and 100 is complete control, read-out: Plant response rating, Barnyardgrass): 90%
- pest or weed control at 500 g/ha (barnyardgrass [3]; Echinochloa crus-galli, pre-emergence, 240 h, 500 g ai/ha, 0 to 100 scale, 0 no effect, 100 complete control, approx. 10 days, read-out: Barnyardgrass plant response rating): 100%
- pest or weed control at 125 g/ha (large (Lg) crabgrass [4]; Digitaria sanguinalis, pre-emergence, 240 h, 125 g ai/ha, 0 to 100 scale where 0 is no effect and 100 is complete control, read-out: Plant response rating, Crabgrass, Large): 100%
- pest or weed control at 500 g/ha (large (Lg) crabgrass [4]; Digitaria sanguinalis, pre-emergence, 240 h, 500 g ai/ha, 0 to 100 scale, 0 no effect, 100 complete control, approx. 10 days, read-out: Crabgrass, Large plant response rating): 100%
- pest or weed control at 250 g/ha (Heteranthera limosa; Heteranthera limosa, read-out: Plant response rating, Ducksalad): 90%
- pest or weed control at 250 g/ha (barnyardgrass [5]; Echinochloa crus-galli, read-out: Plant response rating, Barnyardgrass): 30%
- pest or weed control at 125 g/ha (large (Lg) crabgrass [6]; Digitaria sanguinalis, post-emergence, 240 h, 125 g ai/ha, 0 to 100 scale where 0 is no effect and 100 is complete control, read-out: Plant response rating, Crabgrass, Large): 70%
- pest or weed control at 500 g/ha (large (Lg) crabgrass [6]; Digitaria sanguinalis, post-emergence, 240 h, 500 g ai/ha, 0 to 100 scale, 0 no effect, 100 complete control, read-out: Plant response rating Crabgrass, Large): 100%
- pest or weed control at 62 g/ha (Italian ryegrass; Lolium multiflorum, pre-emergence, 62 g ai/ha, preemergence, scale 0 (no effect) to 100 (complete control), read-out: Ryegrass, Italian plant response rating): 5%
- pest or weed control at 125 g/ha (Italian ryegrass; Lolium multiflorum, pre-emergence, 125 g ai/ha, preemergence, scale 0 (no effect) to 100 (complete control), read-out: Ryegrass, Italian plant response rating): 45%
- pest or weed control at 250 g/ha (Italian ryegrass; Lolium multiflorum, pre-emergence, 250 g ai/ha, preemergence, scale 0 (no effect) to 100 (complete control), read-out: Ryegrass, Italian plant response rating): 85%
- pest or weed control at 31 g/ha (Italian ryegrass; Lolium multiflorum, pre-emergence, Preemergence, 31 g ai/ha, scale 0 to 100, 0 no effect, 100 complete control, read-out: Plant response rating, Ryegrass, Italian): 0%
- Plant response rating, Morningglory (morningglory [7]; [8]): 0
- pest or weed control at 500 g/ha (morningglory [7]; Ipomoea, pre-emergence, 240 h, 500 g ai/ha, 0 to 100 scale, 0 no effect, 100 complete control, approx. 10 days, read-out: Morningglory plant response rating): 40%

SMILES: Fc1cnc(Oc2cccc(C(F)F)c2-n2cc(Br)cn2)nc1 [Compound 112]
- Plant response rating, Morningglory (morningglory [1]; [9]): 100
- Plant response rating, Corn (corn; [8]): 0
- Corn plant response rating (corn; [10]): 50
- Plant response rating, Wheat (wheat; [9]): 70
- Crabgrass, Large plant response rating (large (Lg) crabgrass [2]; [11]): 35
- Crabgrass, Large plant response rating (large (Lg) crabgrass [2]; [12]): 100
- Crabgrass, Large plant response rating (large (Lg) crabgrass [2]; [13]): 100
- Plant response rating, Crabgrass, Large (large (Lg) crabgrass [2]; [14]): 100
- Blackgrass plant response rating (blackgrass; [11]): 0
- Blackgrass plant response rating (blackgrass; [12]): 40
- Blackgrass plant response rating (blackgrass; [13]): 95
- Plant response rating, Blackgrass (blackgrass; [14]): 30
- Wheat plant response rating (wheat, winter; [11]): 0
- Wheat plant response rating (wheat, winter; [12]): 0
- Wheat plant response rating (wheat, winter; [13]): 10
- Plant response rating, Wheat (wheat, winter; [14]): 0
- Plant response rating, Barnyardgrass (barnyardgrass [3]; [8]): 70
- Barnyardgrass plant response rating (barnyardgrass [3]; [10]): 100
- Plant response rating, Crabgrass, Large (large (Lg) crabgrass [4]; [8]): 100
- Crabgrass, Large plant response rating (large (Lg) crabgrass [4]; [10]): 100
- Plant response rating, Ducksalad (Heteranthera limosa): 90
- Plant response rating, Barnyardgrass (barnyardgrass [5]): 0
- Plant response rating, Crabgrass, Large (large (Lg) crabgrass [6]; [8]): 60
- Plant response rating, Crabgrass, Large (large (Lg) crabgrass [6]; [9]): 100
- Ryegrass, Italian plant response rating (Italian ryegrass; [11]): 0
- Ryegrass, Italian plant response rating (Italian ryegrass; [12]): 5
- Ryegrass, Italian plant response rating (Italian ryegrass; [13]): 30
- Plant response rating, Ryegrass, Italian (Italian ryegrass; [14]): 0
- Plant response rating, Morningglory (morningglory [7]; [8]): 80
- Morningglory plant response rating (morningglory [7]; [10]): 90

SMILES: Fc1cccc(Oc2ncc(Cl)cn2)c1-n1cc(I)cn1 [Compound 179]
- Morningglory plant response rating (morningglory [1]; [8]): 70
- Plant response rating, Morningglory (morningglory [1]; [9]): 100
- Plant response rating, Corn (corn; [8]): 0
- Corn plant response rating (corn; [9]): 10
- Wheat plant response rating (wheat; [8]): 30
- Plant response rating, Wheat (wheat; [9]): 60
- Crabgrass, Large plant response rating (large (Lg) crabgrass [2]; [11]): 55
- Crabgrass, Large plant response rating (large (Lg) crabgrass [2]; [12]): 98
- Crabgrass, Large plant response rating (large (Lg) crabgrass [2]; [13]): 100
- Plant response rating, Crabgrass, Large (large (Lg) crabgrass [2]; [14]): 90
- Blackgrass plant response rating (blackgrass; [11]): 0
- Blackgrass plant response rating (blackgrass; [12]): 40
- Blackgrass plant response rating (blackgrass; [13]): 90
- Plant response rating, Blackgrass (blackgrass; [14]): 50
- Wheat plant response rating (wheat, winter; [11]): 0
- Wheat plant response rating (wheat, winter; [12]): 0
- Wheat plant response rating (wheat, winter; [13]): 5
- Plant response rating, Barnyardgrass (barnyardgrass [3]; [8]): 20
- Barnyardgrass plant response rating (barnyardgrass [3]; [9]): 100
- Plant response rating, Crabgrass, Large (large (Lg) crabgrass [4]; [8]): 100
- Crabgrass, Large plant response rating (large (Lg) crabgrass [4]; [9]): 100
- Plant response rating, Ducksalad (Heteranthera limosa): 80
- Plant response rating, Barnyardgrass (barnyardgrass [5]): 20
- Crabgrass, Large plant response rating (large (Lg) crabgrass [6]; [8]): 90
- Plant response rating, Crabgrass, Large (large (Lg) crabgrass [6]; [9]): 100
- Ryegrass, Italian plant response rating (Italian ryegrass; [11]): 0
- Ryegrass, Italian plant response rating (Italian ryegrass; [12]): 30
- Ryegrass, Italian plant response rating (Italian ryegrass; [13]): 70
- Morningglory plant response rating (0 to 100 scale) (morningglory [7]; 125 g ai/ha): 10
- Morningglory plant response rating (morningglory [7]; [9]): 80
